Assay results taken from PMC7774954, “Interactomic affinity profiling by holdup assay: Acetylation and distal residues impact the PDZome-binding specificity of PTEN phosphatase” (PLoS ONE, 2020).
*1 amine or outer side, *2 acyl side, *3 side chain or, on linkers, in order; H or OH if unused. Where a SMILES comes first, the peptide text is derived from it. The star is where a group is joined. X1 = O=C(CCCC[C@@H]1SC[C@@H]2NC(=O)N[C@@H]21)NCCCOCCOCCOCCCN*; Suc = O=C(CCC(=O)[*:2])[*:1]

System: 266 human PDZ domains (PDZome)
Experiment: Holdup assay (chromatographic retention, PDZome-binding profile, BI)
Parameters: key to maximal BI / Max BI / BI: binding intensity: 0.00 = no binding, 1.00 = maximal binding; Log(Kd): unit not given here
Summary of the method: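 Streptavidin resin was saturated with biotinylated 11-mer or 13-mer PTEN PBM peptides (42 μM loading solution), with biotin-only resin as the reference. Resins were incubated for 15 min with lysates containing MBP- or thioredoxin-tagged PDZ domains adjusted to 4 μM, in singlicate. Free PDZ in the filtrate was quantified by capillary electrophoresis, and depletion versus reference gave binding intensity (0–1).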

[1] = PDZ domain PARD3-1, first of two lines so named (r186)

SMILES: CC[C@H](C)[C@H](NC(=O)[C@H](CCC(N)=O)NC(=O)[C@@H](NC(=O)[C@H](Cc1c[nH]cn1)NC(=O)[C@H](CCC(N)=O)NC(=O)[C@H](CC(=O)O)NC(=O)[C@H](CCC(=O)O)NC(=O)[C@H](CC(=O)O)NC(=O)CCC(=O)NCCCOCCOCCOCCCNC(=O)CCCC[C@@H]1SC[C@@H]2NC(=O)N[C@@H]21)[C@@H](C)O)C(=O)N[C@H](C(=O)N[C@@H](CCCNC(=N)N)C(=O)N[C@H](C(=O)O)C(C)C)[C@@H](C)O [PTEN_KR] ({X1-Suc}-DEDQHTQITRV-OH)
- number of additional new PDZ partners not detected for PTEN_11 (BI>0.20, compared with PTEN_11): ≥ 11
- BI (PDZ domain MPDZ-2): 0.021
- BI (PDZ domain MPDZ-3): 0.034
- BI (PDZ domain MPDZ-4): -0.021
- BI (PDZ domain MPDZ-5): 0.058
- BI (PDZ domain MPDZ-6): 0.033
- BI (PDZ domain MPDZ-7): 0.267
- BI (PDZ domain MPDZ-8): 0.128
- BI (PDZ domain MPDZ-13): 0.454
- BI (PDZ domain MPP1-1): -0.046
- BI (PDZ domain MPP2-1): -0.03
- BI (PDZ domain MPP3-1): -0.023
- BI (PDZ domain MPP4-1): 0.067
- BI (PDZ domain MPP5-1): -0.045
- BI (PDZ domain MPP6-1): -0.058
- BI (PDZ domain MPP7-1): -0.023
- BI (PDZ domain NHERF1-2): 0.063
- BI (PDZ domain NHERF3-2): 0.002
- BI (PDZ domain NHERF3-3): 0.185
- BI (PDZ domain NHERF4-1): 0.041
- BI (PDZ domain NHERF4-2): -0.071
- BI (PDZ domain NHERF4-3): -0.035
- BI (PDZ domain NHERF4-4): 0.01
- BI (PDZ domain NOS1-1): 0.039
- BI [1]: 0.3
- Log(Kd) [1]: 4.255
- BI (PDZ domain PARD3-1, second of two lines so named (r187)): -0.046
- BI (PDZ domain PARD3B-1): -0.02
- BI (PDZ domain PARD3B-2): -0.019
- BI (PDZ domain PARD3B-3): -0.035
- BI (PDZ domain PARD6G-1): -0.023
- BI (PDZ domain PDLIM1-1): -0.2
- BI (PDZ domain PDLIM2-1): 0.034
- BI (PDZ domain PDLIM3-1): -0.065
- BI (PDZ domain PDLIM4-1): -0.087
- BI (PDZ domain PDLIM5-1): 0.086
- BI (PDZ domain PDLIM7-1): -0.042
- BI (PDZ domain PDZD2-1): -0.056
- BI (PDZ domain PDZD2-3): -0.096
- BI (PDZ domain PDZD2-4): -0.092
- BI (PDZ domain PDZD2-5): -0.089
- BI (PDZ domain PDZD2-6): 0.089
- BI (PDZ domain PDZD4-1): 0.031
- BI (PDZ domain PDZD7-1): -0.024
- BI (PDZ domain PDZD7-2): -0.039
- BI (PDZ domain PDZD7-3): 0.756
- BI (PDZ domain PDZD8-1): 0.006
- BI (PDZ domain PDZD11-1): -0.048
- BI (PDZ domain PDZRN4-1): 0.048
- BI (PDZ domain PDZRN4-2): -0.071
- BI (PDZ domain PPP1R9A-1): 0.012
- BI (PDZ domain PPP1R9B-1): 0.038
- BI (PDZ domain PREX2-2): -0.004
- BI (PDZ domain PRX-1): 0.025
- BI (PDZ domain PSMD9-1): -0.039
- BI (PDZ domain PTPN3-1): 0.12
- BI (PDZ domain PTPN4-1): -0.038
- BI (PDZ domain PTPN13-1): -0.017
- BI (PDZ domain PTPN13-5): 0.096
- BI (PDZ domain RAPGEF2-1): -0.11
- BI (PDZ domain RHPN2-1): -0.087
- BI (PDZ domain RIMS1-1): 0.013
- BI (PDZ domain SCRIB-1): 0.042
- BI (PDZ domain SCRIB-2): 0.147
- BI (PDZ domain SCRIB-4): 0.039
- BI (PDZ domain SDCBP-2): -0.067
- BI (PDZ domain SHANK1-1): 0.547
- BI (PDZ domain SHANK3-1): 0.554
- BI (PDZ domain SHROOM2-1): 0.058
- BI (PDZ domain SHROOM3-1): 0.042
- BI (PDZ domain SHROOM4-1): -0.148
- BI (PDZ domain SIPA1L2-1): 0.064
- BI (PDZ domain SIPA1L3-1): -0.006
- BI (PDZ domain SNTA1-1): 0.395
- BI (PDZ domain SNTB1-1): 0.503
- BI (PDZ domain SNTG1-1): 0.076
- BI (PDZ domain SNTG2-1): 0.383
- BI (PDZ domain STXB4-1): -0.075
- BI (PDZ domain SYNJ2BP-1): -0.026
- BI (PDZ domain SYNP2-1): -0.044
- BI (PDZ domain SYNPO2L-1): -0.021
- BI (PDZ domain TIAM2-1): 0.037
- BI (PDZ domain TJP1-2): -0.006
- BI (PDZ domain TJP1-3): 0.099
- BI (PDZ domain TJP2-1): 0.086
- BI (PDZ domain TJP2-2): -0.005
- BI (PDZ domain TJP2-3): -0.025
- BI (PDZ domain TJP3-2): 0.112
- BI (PDZ domain TJP3-3): 0.12
- BI (PDZ domain TX1B3-1): -0.019
- BI (PDZ domain USH1C-1): -0.098
- BI (PDZ domain USH1C-2): -0.039
- BI (PDZ domain USH1C-3): -0.061
- number of PDZ domains identified as potential binders (BI>0.20) (holdup, singlicate, threshold BI>0.20): 37 PDZ domains
- maximal BI (holdup, singlicate, highest BI in the PDZome profile, BI standard error ~0.07): 0.86
- binding of several PDZ domains (in words) (including several ones from MAGI and NHERF): detectably bound
- Max BI (maximum over PDZome): 0.86
- number of partners detected for PTEN_KR and not for PTEN_Ac (over a total of 37): 8
